# Results taken from EP1589016A1, “Thio-substituted tricyclic and bicyclic aromatic methanesulfinyl derivatives” (CEPHALON FRANCE, priority 2004, dated 2005).
# Test system: Rats
# Test: Evaluation of Wake Promoting Activity in Rats (EEG/EMG sleep/wake scoring)
# Format: in vivo, Wistar rats
# Details: i.p. route, 100 mg/kg; for Mean AUC 0-3h, Test compound: n = 4 rats per test compound, group mean, compared with vehicle group (8 rats); for wakefulness compared to the vehicle-treated control groups: rats, p< 0.05 versus vehicle
# Method: The methodology utilized for evaluating wake promoting activity of test compounds is based on that described by Edgar and Seidel, Journal of Pharmacology and Experimental Therapeutics, 283:757-769, 1997, and incorporated herein in its entirety by reference.
# Animal Surgery. Adult, male Wistar rats (275-320g from Charles River Laboratories, Wilmington, MA) were anesthetized (Nembutal, 45 mg/kg, ip.) and surgically prepared with implants for recording of chronic EEG (encephalographic) and EMG (electromyographic) recording. The EEG implants were made from commercially available components (Plastics One, Roanoke, VA). EEG signals were recorded from stainless steel screw electrodes: 2 frontal (+3.0 mm AP from bregma, ±2.0 mm ML), and 2 occipital (-4.0 mm AP from bregma, ±2.0 mm ML). Two Teflon-coated stainless steel wires were positioned under the nuchal trapezoid muscles for EMG recording. All electrode leads were inserted into a connector pedestal and the pedestal affixed to the skull by application dental acrylic. Antibiotic was administered post surgically and antibiotic cream was applied to the wound edges to prevent infection. At least one week elapsed between surgery and recording.
# Recording environment. Postsurgically, rats were housed in pairs in an isolated room. Food and water were available ad libitum, ambient temperature was 21°C, and humidity was 55%. At least 24 hrs prior to recording, they were placed in Nalgene containers (31 x 31 x 31 cm) with a wire-grid top, and entry to the room was prohibited during the day of recording except for dosing. The containers were placed on a rack with two shelves, 4 containers per shelf. Fluorescent overhead room lights were set to a 24 hr. light/dark cycle (on at 7 AM, off at 7 PM). Light levels inside the containers were 38 and 25 lux for the top and bottom shelves respectively. Background white-noise (68db inside the containers) was present in the room to mask ambient sounds.
# Data acquisition. EEG and EMG signals were led via cables to a commutator (Plastics One) and then to pre-amplifiers (model 1700, A-M Systems, Carlsborg, WA). EEG and EMG signals were amplified (10K and 1K respectively) and bandpass filtered between 0.3 and 500 Hz for EEG and between 10 and 500 Hz for EMG. These signals were digitized at 128 samples per second using ICELUS sleep research software (M. Opp, U. Texas; see Opp, Physiology and Behavior 63:67-74, 1998, and Imeri, Mancia, and Opp, Neuroscience 92:745-749, 1999, incorporated by reference herein in their entirety) running under Labview 5.1 software and data acquisition hardware (PCI-MIO-16E-4; National Instruments, Austin, TX). On the day of dosing, data was recorded for 6 to 10 hours beginning at 11 AM.
# Drug administration and study design. Compounds were evaluated on groups of from 4 to 8 rats carried out over one or two separate test sessions. Each animal was tested with a different compound or vehicle for up to 10 weeks with at least 7 days between successive tests. A vehicle group was included in all experiments, and each animal received vehicle every 4th test. Test compounds were suspended in sterile 0.25% methylcellulose (pH=6.2; Upjohn Co., Kalamazoo, MI) at […]. Although compounds can be administered at dosages greater than 100 mg/kg and are expected to be active under the selection criteria of data analysis, unless otherwise noted, compounds were administered at a single dose of 100 mg/kg. Dosing was carried out at noon, while the rats were predominantly asleep. Each rat was lifted out of its container, given an intraperitoneal injection in a volume of 5 mL/kg, and replaced. Dosing required approximately 30 sec per rat.
# Sleep / wake scoring. Sleep and wake activity were determined manually using ICELUS software. […]
smiles,measurement,value
O=C(C[S+]([O-])Cc1cccc2c1oc1ccccc12)N1CCNCC1 (stereo not drawn) [Example 99],"Mean AUC 0-3h, Test compound",129.1 % of waiking time x hr
same,wakefulness compared to the vehicle-treated control groups,significantly greated wakefulness
O=C(C[S+]([O-])Cc1cccc2c1-c1ccccc1C2)N1CCNCC1 (stereo not drawn) [Example 130],"Mean AUC 0-3h, Test compound",149.2 % of waiking time x hr
same,wakefulness compared to the vehicle-treated control groups,significantly greated wakefulness
"CC(C)(C)OC(=O)N1CCN(C(=O)CSCc2ccc3oc4ccc(F)cc4c3c2)CC1 [Example 26, 4-[2-(8-fluorodibenzofuran-2-yl-methylsulfanyl)acetyl]-piperazine-1-carboxylic acid tret-butyl ester]","Mean AUC 0-3h, Test compound",132.0 % of waiking time x hr
same,wakefulness compared to the vehicle-treated control groups,significantly greated wakefulness
